The values that follow come from patent publication EP0557345B1, “1,3-BIS- 3-(MONO- OR POLY-HYDROXY)ACYLAMINO-5-(MONO- OR POLY-HYDROXYALKYL)AMINOCARBONYL-2,4,6-TRIIODO-BENZOYL-AMINO]-HYDROXY- OR HYDROXYALKYL-PROPANES, THEIR METHODS OF PREPARATION AND X-RAY CONTRAST MEDIA CONTAINING THEM” (DIBRA S.p.A., priority 1990, dated 1992).

Where two headings read alike, the source gives them in different places.

As usually defined, the clearance is the volume of plasma or blood freed of the substance per unit of time. In general, half-life refers to the time in which the quantity being followed falls by half.

One data set can be described thus: Solubility in water. Format: physicochemical.
Data set [1] can be described thus: Osmolality of the solution. Format: physicochemical. As to conditions: 37°C, 300 mgI/ml.
A short description of data set [2]: Viscosity of the solution. The note with it: 37°C, 300 mgI/ml. Format: physicochemical.
Data set [3] can be described thus: Plasma kinetics after intravenous administration in rats. The note with it: rat, 200 mgI/kg; for half-life: iv. Format: in vivo. As to the method: The apparent volume of distribution is 123.5 ml/kg showing that the product is distributed in plasma and the extracellular spaces.
Data set [4] can be described thus: Elimination through urine and bile after administration. Format: in vivo, rats. As to conditions: after 7 hours from the administration. As to the method: Elimination occurs mainly through urinary pathway and in less extent through the bile. After 7 hours from the administration, 76.7% of the administered dose was found in the urine and 3.5% in the bile.
The test system of a further data set is mice. The data set is described as follows: Acute toxicity, intravenous administration in mice. Format: in vivo. The note with it: 14 days of observation.
The next data set has as its system rats. The data set is described as follows: Acute toxicity, intracisternal administration in rats. Format: in vivo. As to conditions: 7 days of observation.

As for `O=C(CO)Nc1c(I)c(C(=O)NCC(O)CNC(=O)c2c(I)c(NC(=O)CO)c(I)c(C(=O)NC(CO)C(O)CO)c2I)c(I)c(C(=O)NC(CO)C(O)CO)c1I` (stereo not shown) [Example 15, 1,3-bis-[3-hydroxyacetylamino-5-(1,3,4-trihydroxy-2-butyl)aminocarbonyl-2,4,6-triiodo-benzoyl-amino]-2-hydroxy-propane], the “Solubility in H₂O” value in the data set “Solubility in water” (at 20°C) stood at 100 % w/v.
On to `C[C@H](O)C(=O)Nc1c(I)c(C(=O)NCC(O)CNC(=O)c2c(I)c(NC(=O)CO)c(I)c(C(=O)NC(CO)C(O)CO)c2I)c(I)c(C(=O)NC(CO)CO)c1I` (stereo partly drawn) [Example 11, 1-[3-hydroxyacetylamino-5-(1,3,4-trihydroxy-2-butyl)aminocarbonyl-2,4,6-triiodo-benzoyl-amino]-3-[3-(L-2-hydroxy-propionyl)amino-5-(1,3-dihydroxy-isopropyl)aminocarbonyl-2,4,6-triiodo-benzoyl-amino]-2-hydroxypropane], for which the “Solubility in H₂O” value in “Solubility in water” (at 25°C) is over 100 % w/v.
In the case of `C[C@H](O)C(=O)Nc1c(I)c(C(=O)NCC(O)CNC(=O)c2c(I)c(NC(=O)CO)c(I)c(C(=O)NCC(O)CO)c2I)c(I)c(C(=O)NC(CO)CO)c1I` (stereo partly drawn) [Example 10, 1-[3-(L-2-hydroxy-propionyl)amino-5-(1,3-dihydroxyisopropyl)aminocarbonyl-2,4,6-triiodo-benzoyl-amino]-3-[3-hydroxyacetylamino-5-(2,3-dihydroxy-propyl)aminocarbonyl-2,4,6-triiodo-benzoyl-amino]-2-hydroxy-propane], the Osmolality in data set [1] was found to be 131 mosm/kg H₂O. The Viscosity in data set [2] turned out to be 8.6 mPa·s.
The like results for `CC(=O)N(CC(O)CN(C(C)=O)c1c(I)c(C(=O)NCC(O)CO)c(I)c(C(=O)NCC(O)CO)c1I)c1c(I)c(C(=O)NCC(O)CO)c(I)c(C(=O)NCC(O)CO)c1I` (stereo not shown) [C, 1,3-bis-[N-[3,5-bis-(2,3-dihydroxy-propyl)aminocarbonyl-2,4,6-triiodo-phenyl]-acetylamino]-2-hydroxy-propane, reference compound] were, in that order, 196 mosm/kg H₂O and 8.7 mPa·s.
Take `C[C@H](O)C(=O)Nc1c(I)c(C(=O)NCC(O)CNC(=O)c2c(I)c(NC(=O)[C@H](C)O)c(I)c(C(=O)NC(CO)C(O)CO)c2I)c(I)c(C(=O)NC(CO)C(O)CO)c1I` (stereo partly drawn) [Example 4, 1,3-bis-[3-(L-2-hydroxy-propionyl)amino-5-(1,3,4-tri-hydroxy-2-butyl)aminocarbonyl-2,4,6-triiodo-benzoyl-amino]-2-hydroxy-propane]: in “Solubility in water” (at 20°C), the “Solubility in H₂O” value was found to be 100 % w/v.
On the same count and under the same terms, under `CN(CC(O)CN(C)C(=O)c1c(I)c(NC(=O)CO)c(I)c(C(=O)NC(CO)C(O)CO)c1I)C(=O)c1c(I)c(NC(=O)CO)c(I)c(C(=O)NC(CO)C(O)CO)c1I` (stereo not shown) [Example 16, 1,3-bis-[N-methyl-N-[3-hydroxyacetylamino-5-(1,3,4-trihydroxy-2-butyl)aminocarbonyl-2,4,6-triiodo-benzoyl]-amino]-2-hydroxy-propane] stands 100 % w/v.
Take `C[C@H](O)C(=O)Nc1c(I)c(C(=O)NCC(O)CNC(=O)c2c(I)c(NC(=O)[C@H](C)O)c(I)c(C(=O)NC(CO)CO)c2I)c(I)c(C(=O)NC(CO)CO)c1I` [Example 1, 1,3-bis-[3-(L-2-hydroxy-propionyl)amino-5-(1,3-dihydroxy-isopropyl)-aminocarbonyl-2,4,6-triiodo-benzoyl-amino]-2-hydroxy-propane]: in data set [3] (read-out: apparent volume of distribution), the Vd came to 0.123 L/kg. Besides, the clearance in data set [3] (read-out: total clearance) was found to be 7.9 mL/min/kg. For the same molecule, the half-life was 2.9 min in data set [3] (read-out: half life for the distribution phase) and 22.9 min in data set [3] (read-out: half life for the elimination phase). In data set [4], the “administered dose found in the bile” value was found to be 3.5%. The “administered dose found in the urine” value in data set [4] is listed as 76.7%. The entries for the “LD₅₀ C.L. 95%” value with mice and with rats were over 15000 mgI/kg and over 900 mgI/kg, respectively. Besides, in data set [1], the Osmolality was determined as 141 mosm/kg H₂O. Further, in data set [2], the Viscosity was found to be 8.5 mPa·s.
`C[C@H](O)C(=O)Nc1c(I)c(C(=O)NCC(O)CO)c(I)c(C(=O)N(C)CC(O)CN(C)C(=O)c2c(I)c(NC(=O)[C@H](C)O)c(I)c(C(=O)NCC(O)CO)c2I)c1I` (stereo partly drawn) [Example 8, 1,3-bis-[N-methyl-N-[3-(L-2-hydroxy-propionyl)amino-5-(2,3-dihydroxy-propyl)aminocarbonyl-2,4,6-triiodobenzoyl]amino]-2-hydroxy-propane]: the “Solubility in H₂O” value in the data set “Solubility in water” (at 20°C) is on record as over 100 % w/v.
